Key:
Carbonic anhydrase 7 = Carbonic anhydrase 7 (Homo sapiens, UniProt P43166)
Carbonic anhydrase 12 = Carbonic anhydrase 12 (Homo sapiens, UniProt O43570); experiment: Inhibition of human carbonic anhydrase 12 preincubated for 15 mins at pH 7.5 by stopped flow CO2 hydration method
Carbonic anhydrase 2 = Carbonic anhydrase 2 (Homo sapiens, UniProt P00918); experiment: Inhibition of human carbonic anhydrase 2 preincubated for 15 mins at pH 7.5 by stopped flow CO2 hydration method
Carbonic anhydrase = molecular target: T1, Carbonic anhydrase (Candida albicans (strain SC5314 / ATCC MYA-2876) (Yeast), UniProt Q5AJ71)
T1 sequence (Q5AJ71 whole entry): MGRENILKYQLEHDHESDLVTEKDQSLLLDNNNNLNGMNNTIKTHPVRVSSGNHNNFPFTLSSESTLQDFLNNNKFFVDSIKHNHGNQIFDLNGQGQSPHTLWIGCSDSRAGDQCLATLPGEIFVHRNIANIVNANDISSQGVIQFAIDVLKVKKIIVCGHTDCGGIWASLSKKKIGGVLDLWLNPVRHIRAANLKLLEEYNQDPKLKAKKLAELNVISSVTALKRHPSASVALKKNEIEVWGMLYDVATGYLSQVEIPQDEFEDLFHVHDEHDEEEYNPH

Carbonic anhydrase 1 = Carbonic anhydrase 1 (Homo sapiens, UniProt P00915)
Carbonic anhydrase 9 = Carbonic anhydrase 9 (Homo sapiens, UniProt Q16790)

Sequence of Carbonic anhydrase 1 (P00915 whole entry): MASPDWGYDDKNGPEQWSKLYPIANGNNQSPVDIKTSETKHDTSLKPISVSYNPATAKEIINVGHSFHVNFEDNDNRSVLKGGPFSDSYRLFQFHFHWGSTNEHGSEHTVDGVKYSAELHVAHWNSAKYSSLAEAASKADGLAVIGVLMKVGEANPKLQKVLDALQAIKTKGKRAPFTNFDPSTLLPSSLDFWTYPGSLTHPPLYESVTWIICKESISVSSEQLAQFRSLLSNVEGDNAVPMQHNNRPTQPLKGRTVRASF
Sequence of Carbonic anhydrase 12 (O43570 whole entry): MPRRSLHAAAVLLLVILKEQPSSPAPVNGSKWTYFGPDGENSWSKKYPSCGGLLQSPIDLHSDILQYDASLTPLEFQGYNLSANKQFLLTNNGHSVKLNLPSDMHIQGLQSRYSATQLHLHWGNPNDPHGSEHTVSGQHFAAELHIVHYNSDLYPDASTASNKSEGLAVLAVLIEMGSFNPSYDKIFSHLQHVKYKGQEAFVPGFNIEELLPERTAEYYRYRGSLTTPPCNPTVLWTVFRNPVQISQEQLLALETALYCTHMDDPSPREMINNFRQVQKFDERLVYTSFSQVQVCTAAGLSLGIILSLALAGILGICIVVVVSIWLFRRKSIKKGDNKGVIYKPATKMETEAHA
Sequence of Carbonic anhydrase 7 (P43166 whole entry): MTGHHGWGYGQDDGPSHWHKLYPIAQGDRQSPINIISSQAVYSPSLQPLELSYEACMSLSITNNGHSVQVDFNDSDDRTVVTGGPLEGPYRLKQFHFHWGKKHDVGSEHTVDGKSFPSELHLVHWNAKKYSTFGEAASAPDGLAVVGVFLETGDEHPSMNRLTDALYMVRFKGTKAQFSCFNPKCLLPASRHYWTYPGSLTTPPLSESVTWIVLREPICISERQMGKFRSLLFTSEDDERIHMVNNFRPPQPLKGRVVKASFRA

SMILES	Ki (Carbonic anhydrase 7) [nM]	Ki (Carbonic anhydrase 12) [nM]	Ki (Carbonic anhydrase 2) [nM]	Ki (Carbonic anhydrase) [nM]	Ki (Carbonic anhydrase 1) [nM]	Ki (Carbonic anhydrase 9) [nM]
CCN(CC)c1ccc2c(c1)Oc1cc(N(CC)CC)ccc1C21c2ccccc2C(=O)N1c1ccc(S(N)(=O)=O)cc1	60.2	9.1	279	4990	512	
CCN(CC)c1ccc2c(c1)Oc1cc(N(CC)CC)ccc1C21c2ccccc2C(=O)N1c1cccc(S(N)(=O)=O)c1	12.1	10.5	21.5	4100	311	24
CCN(CC)c1ccc2c(c1)Oc1cc(N(CC)CC)ccc1C21c2ccccc2C(=O)N1Cc1ccc(S(N)(=O)=O)cc1	34.9	8.6	980	5320	714	10.2
CCN(CC)c1ccc2c(c1)Oc1cc(N(CC)CC)ccc1C21c2ccccc2C(=O)N1CCc1ccc(S(N)(=O)=O)cc1	91.7	25.3	955	4730	692	19.4

— ChEMBL document CHEMBL1821683, “Synthesis of rhodamine B-benzenesulfonamide conjugates and their inhibitory activity against human α- and bacterial/fungal β-carbonic anhydrases” (Bioorg Med Chem Lett, 2011)
